Experimental data: doi:10.1101/2025.10.31.685773v1 (biorxiv, 2025)

Legend:
[1] = biological target: T1, ADLP (Thermus thermophilus, UniProt Q72IQ0); experiment: isothermal titration calorimetry; assay type: binding
T1 sequence (Q72IQ0 1-345): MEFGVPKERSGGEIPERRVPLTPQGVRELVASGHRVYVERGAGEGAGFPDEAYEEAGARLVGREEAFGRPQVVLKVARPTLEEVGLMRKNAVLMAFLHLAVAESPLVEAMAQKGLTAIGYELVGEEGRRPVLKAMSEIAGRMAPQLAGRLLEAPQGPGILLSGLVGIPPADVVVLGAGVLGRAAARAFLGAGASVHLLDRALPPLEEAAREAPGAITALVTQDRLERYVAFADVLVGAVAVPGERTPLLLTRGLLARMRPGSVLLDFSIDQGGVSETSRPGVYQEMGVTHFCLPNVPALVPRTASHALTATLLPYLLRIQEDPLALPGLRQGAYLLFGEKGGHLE

[2] = biological target: TtCoAT·ADLP complex (NAD(H) site in ADLP) (Thermus thermophilus, UniProt Q72IQ0); experiment: isothermal titration calorimetry; assay type: binding
[3] = system: CCCC(=O)SCCNC(=O)CCNC(=O)[C@H](O)C(C)(C)COP(=O)(O)OP(=O)(O)OC[C@H]1O[C@@H](n2cnc3c(N)ncnc32)[C@H](O)[C@@H]1OP(=O)(O)O; experiment: purified protein; details: 100 mM acetate as co-substrate, pH 7.5, no NAD+

Row | Compound | Kd [1] | Kd [2] | Km [3]
1 | NC(=O)C1=CN([C@@H]2O[C@H](COP(=O)(O)OP(=O)(O)OC[C@H]3O[C@@H](n4cnc5c(N)ncnc54)[C@H](O)[C@@H]3O)[C@@H](O)[C@H]2O)C=CC1 [NADH] | 0.22 µM | 0.34 ± 0.051 µM | –
2 | NC(=O)c1ccc[n+]([C@@H]2O[C@H](COP(=O)(O)OP(=O)(O)OC[C@H]3O[C@@H](n4cnc5c(N)ncnc54)[C@H](O)[C@@H]3O)[C@@H](O)[C@H]2O)c1 [NAD^+] | 9.1 µM | 3.1 ± 0.33 µM | –
3 | TtCoAT·ADLP (CoA transferase site) (Thermus thermophilus HB27) | – | – | 33.1 ± 2.8 µM
